Test results: US9120756B2, “Substituted phenylureas and phenylamides as vanilloid receptor ligands” (Gruenenthal GmbH, priority 2009, dated 2015)

Target: hVR1 (Homo sapiens (Human), UniProt Q8NER1)
Test: FLIPR Ca2+ influx assay on CHO K1 cells transfected with the VR1 gene, capsaicin stimulus (method II)
Assay type: cell-based
Design: key to Ki (human being) Cap: result in words (NE / AG): AG=agonist; pAG=partial agonist; NE=no effect
Settings: CHO-K1, read-out: Ki (human being) Cap column: inhibition (as a percentage) @ 5 μM, capsaicin, inhibition determined at 5 μM
Excerpt: In the process, the Ca^2+ influx is quantified in the FLIPR assay with the aid of a Ca^2+-sensitive dye (type Fluo-4, Molecular Probes Europe BV, Leiden, the Netherlands) in a fluorescent imaging plate reader (FLIPR, Molecular Devices, Sunnyvale, USA), as described hereinafter.
The agonistic or antagonistic effect of the substances to be tested on the vanilloid receptor 1 (VR1) can also be determined using the following assay. In this assay, the influx of Ca^2+ through the channel is quantified with the aid of a Ca^2+-sensitive dye (type Fluo-4, Molecular Probes Europe BV, Leiden, the Netherlands) in a fluorescent imaging plate reader (FLIPR, Molecular Devices, Sunnyvale, USA).
Chinese hamster ovary cells (CHO K1 cells, European Collection of Cell Cultures (ECACC) United Kingdom) are stably transfected with the VR1 gene. For functional testing, these cells are plated out on poly-D-lysine-coated black 96-well plates having a clear base (BD Biosciences, Heidelberg, Germany) at a density of 25,000 cells/well. The cells are incubated overnight at 37° C. and 5% CO2 in a culture medium (Ham's F12 nutrient mixture, 10% by volume of FCS (foetal calf serum), 18 μg/ml of L-proline). The next day the cells are incubated with Fluo-4 (Fluo-4 2 μM, 0.01% by volume of Pluronic F127, Molecular Probes in HBSS (Hank's buffered saline solution), Gibco Invitrogen GmbH, Karlsruhe, Germany) for 30 minutes at 37° C. Subsequently, the plates are washed three times with HBSS buffer and after further incubation for 15 minutes at RT used for Ca^2+ measurement in a FLIPR assay. The Ca^2+-dependent fluorescence is measured before and after the addition of the substances to be tested (λex wavelength=488 nm, λem=540 nm). Quantification is carried out by measuring the highest fluorescence intensity (FC, fluorescence counts) over time.
The FLIPR protocol consists of 2 substance additions. First the compounds to be tested (10 μM) are pipetted onto the cells and the Ca^2+ influx is compared with the control (capsaicin 10 μM) (% activation based on the Ca^2+ signal after the addition of 10 μM of capsaicin). After 5 minutes' incubation, 100 nM of capsaicin are applied and the Ca^2+ influx is also determined.
Desensitising agonists and antagonists led to suppression of the Ca^2+ influx.
Starting from the percentage displacement caused by different concentrations of the compounds to be tested of general formula I, IC50 inhibitory concentrations which cause a 50-percent displacement of capsaicin were calculated. Ki values for the test substances were obtained by conversion by means of the Cheng-Prusoff equation (Cheng, Prusoff; Biochem. Pharmacol. 22, 3099-3108, 1973).

hVR1, sequence (Q8NER1 whole entry): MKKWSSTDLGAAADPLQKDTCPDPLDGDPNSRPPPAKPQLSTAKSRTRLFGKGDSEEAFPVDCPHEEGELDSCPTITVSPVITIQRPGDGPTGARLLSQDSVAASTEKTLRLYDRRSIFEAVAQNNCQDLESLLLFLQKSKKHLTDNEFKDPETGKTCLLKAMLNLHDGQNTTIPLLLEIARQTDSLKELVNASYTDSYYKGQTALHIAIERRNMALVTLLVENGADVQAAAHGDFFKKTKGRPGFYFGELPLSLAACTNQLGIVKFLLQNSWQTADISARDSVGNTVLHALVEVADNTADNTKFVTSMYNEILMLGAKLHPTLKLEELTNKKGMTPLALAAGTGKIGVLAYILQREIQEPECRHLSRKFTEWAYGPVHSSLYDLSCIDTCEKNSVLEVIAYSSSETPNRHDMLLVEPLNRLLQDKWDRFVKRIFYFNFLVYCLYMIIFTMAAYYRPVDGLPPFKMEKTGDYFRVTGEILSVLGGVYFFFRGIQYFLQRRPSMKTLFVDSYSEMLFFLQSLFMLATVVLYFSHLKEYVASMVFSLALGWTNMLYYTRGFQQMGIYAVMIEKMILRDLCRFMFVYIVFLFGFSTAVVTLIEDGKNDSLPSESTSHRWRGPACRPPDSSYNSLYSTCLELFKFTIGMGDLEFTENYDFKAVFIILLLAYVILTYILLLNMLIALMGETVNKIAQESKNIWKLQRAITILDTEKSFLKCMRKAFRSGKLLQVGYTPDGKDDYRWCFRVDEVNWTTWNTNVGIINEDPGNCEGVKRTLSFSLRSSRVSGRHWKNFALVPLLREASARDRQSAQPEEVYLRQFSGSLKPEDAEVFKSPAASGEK

| inhibition at 5 µM [%] | Compound |
| --- | --- |
| 44 | CN(C(=O)NCc1cc(C(F)(F)F)nn1-c1cccc(Cl)c1)c1cccc(F)c1 [Example 123, 3-((1-(3-chlorophenyl)-3-(trifluoromethyl)-1H-pyrazol-5-yl)methyl)-1-(3-fluorophenyl)-1-methylurea] |
| 58 | CCCCCn1nc(C(F)(F)F)cc1CNC(=O)Cc1cccc(F)c1 [Example 131, 2-(3-fluorophenyl)-N-((1-pentyl-3-(trifluoromethyl)-1H-pyrazol-5-yl)methyl)acetamide] |
| 34 | COc1ccc(Cn2nc(C(F)(F)F)cc2CNC(=O)Cc2cccc(F)c2)cc1 [Example 132, 2-(3-fluorophenyl)-N-((1-(4-methoxybenzyl)-3-(trifluoromethyl)-1H-pyrazol-5-yl)methyl)acetamide] |
| 12 | CC(C)(C)c1cc(CNC(=O)Cc2cccc(F)c2)n(NCC(F)(F)F)n1 [Example 133, N-((3-tert-butyl-1-(2,2,2-trifluoroethylamino)-1H-pyrazol-5-yl)methyl)-2-(3-fluorophenyl)acetamide] |
| 24 | CC(C)(C)c1nc(CNC(=O)Cc2cccc(F)c2)n(-c2cccc(Cl)c2)n1 [Example 135, N-((3-tert-butyl-1-(3-chlorophenyl)-1H-1,2,4-triazol-5-yl)methyl)-2-(3-fluorophenyl)acetamide] |

Same assay, conditions: CHO-K1, read-out: Ki (human being) inhibition (as a percentage) @ 1 μM, capsaicin, inhibition determined at 1 μM

| inhibition at 1 µM [%] | Compound |
| --- | --- |
| 6 | O=C(NCc1cc(C(F)(F)F)nn1-c1cccc(Cl)c1)C1(c2cccc(F)c2)CCCC1 [Example 120, N-((1-(3-chlorophenyl)-3-(trifluoromethyl)-1H-pyrazol-5-yl)methyl)-1-(3-fluorophenyl)cyclopentancarboxamide] |

Same assay, conditions: capsaicin

| Ki (human being) Cap: result in words (NE / AG) | Compound |
| --- | --- |
| AG | COc1c(F)cc(NC(=O)NCc2cc(C(C)(C)C)nn2-c2cccc(Cl)c2)cc1F [Example 61, 1-((3-tert-butyl-1-(3-chlorophenyl)-1H-pyrazol-5-yl)methyl)-3-(3,5-difluoro-4-methoxyphenyl)urea] |
| AG | CC(C)(C)c1cc(CNC(=O)Cc2cccc(F)c2)n(-c2cccc(Cl)c2)n1 [Example 73, N-((3-tert-butyl-1-(3-chlorophenyl)-1H-pyrazol-5-yl)methyl)-2-(3-fluorophenyl)acetamide] |
| AG | CC(C)(C)c1cc(CNC(=O)C2(c3cccc(F)c3)CC2)n(-c2cccc(Cl)c2)n1 [Example 118, N-((3-tert-butyl-1-(3-chlorophenyl)-1H-pyrazol-5-yl)methyl)-1-(3-fluorophenyl)cyclopropancarboxamide] |
| AG | CC(C)(C)c1cc(CNC(=O)Nc2cccc(F)c2)n(-c2ccc(F)cc2)n1 [Example 122, 1-((3-tert-butyl-1-(4-fluorophenyl)-1H-pyrazol-5-yl)methyl)-3-(3-fluorophenyl)urea] |
| AG | CC(C(=O)NCc1cc(C(C)(C)C)nn1-c1cccc(Cl)c1)c1ccc(C2CC2)c(F)c1 (stereo not drawn) [Example 125, N-((3-tert-butyl-1-(3-chlorophenyl)-1H-pyrazol-5-yl)methyl)-2-(4-cyclopropyl-3-fluorophenyl)propanamide] |
| AG | O=C(NCc1cc(C(F)(F)F)nn1-c1cccc(Cl)c1)Nc1ccc(C#CC2CC2)c(F)c1 [Example 139, 1-((1-(3-chlorophenyl)-3-(trifluoromethyl)-1H-pyrazol-5-yl)methyl)-3-(4-(cyclopropylethynyl)-3-fluorophenyl)urea] |
| AG | COCCOCc1ccc(C(C)C(=O)NCc2cc(C(C)(C)C)nn2-c2cccc(Cl)c2)cc1F (stereo not drawn) [Example 142, N-((3-tert-butyl-1-(3-chlorophenyl)-1H-pyrazol-5-yl)methyl)-2-(3-fluoro-4-((2-methoxyethoxy)methyl)phenyl)propanamide] |

Same assay, conditions: capsaicin (Cap), read-out: Ki (human being) [nM] Cap

| Ki [nM] | Compound |
| --- | --- |
| 6.3 | CC(C(=O)NCc1cc(C(F)(F)F)nn1-c1cccc(Cl)c1)c1cc(F)cc(F)c1 (stereo not drawn) [Example 30, N-((1-(3-chlorophenyl)-3-(trifluoromethyl)-1H-pyrazol-5-yl)methyl)-2-(3,5-difluorophenyl)propanamide] |
| 4 | CC(C(=O)NCc1cc(C(C)(C)C)nn1-c1cccc(Cl)c1)c1ccc(CNS(C)(=O)=O)c(F)c1 (stereo not drawn) [Example 33, N-((3-tert-butyl-1-(3-chlorophenyl)-1H-pyrazol-5-yl)methyl)-2-(3-fluoro-4-(methylsulphonamidomethyl)phenyl)propanamide] |
| 7.2 | CC(C(=O)NCc1cc(C(F)(F)F)nn1-c1cccc(Cl)c1)c1ccc(C(=O)Nc2ccccc2)c(F)c1 (stereo not drawn) [Example 39, 4-(1-((1-(3-chlorophenyl)-3-(trifluoromethyl)-1H-pyrazol-5-yl)methylamino)-1-oxopropan-2-yl)-2-fluoro-N-phenylbenzamide] |
| 0.8 | CC(C(=O)NCc1cc(C(F)(F)F)nn1-c1cccc(Cl)c1)c1ccc(C(=O)Nc2ccc(F)cc2)cc1 (stereo not drawn) [Example 40, 4-(1-((1-(3-chlorophenyl)-3-(trifluoromethyl)-1H-pyrazol-5-yl)methylamino)-1-oxopropan-2-yl)-N-(4-fluorophenyl)benzamide] |
| 85 | CC(C(=O)NCc1cc(C(F)(F)F)nn1-c1cccc(Cl)c1)c1ccc(C(=O)Nc2ccc(C(F)(F)F)cc2)cc1 (stereo not drawn) [Example 41, 4-(1-((1-(3-chlorophenyl)-3-(trifluoromethyl)-1H-pyrazol-5-yl)methylamino)-1-oxopropan-2-yl)-N-(4-(trifluoromethyl)phenyl)benzamide] |
| 17 | COc1c(F)cc(C(C)C(=O)NCc2cc(C(F)(F)F)nn2-c2cccc(Cl)c2)cc1F (stereo not drawn) [Example 47, N-((1-(3-chlorophenyl)-3-(trifluoromethyl)-1H-pyrazol-5-yl)methyl)-2-(3,5-difluoro-4-methoxyphenyl)propanamide] |
| 56 | CC(C)(C(=O)NCc1cc(C(F)(F)F)nn1-c1cccc(Cl)c1)c1cccc(F)c1 [Example 117, N-((1-(3-chlorophenyl)-3-(trifluoromethyl)-1H-pyrazol-5-yl)methyl)-2-(3-fluorophenyl)-2-methylpropanamide] |
| 107 | O=C(NCc1cc(C(F)(F)F)nn1-c1cccc(Cl)c1)C1(c2cccc(F)c2)CCC1 [Example 119, N-((1-(3-chlorophenyl)-3-(trifluoromethyl)-1H-pyrazol-5-yl)methyl)-1-(3-fluorophenyl)cyclobutancarboxamide] |
| 31.4 | O=C(NCc1cc(C(F)(F)F)nn1-c1cccc(Cl)c1)Nc1ccc(C2CC2)c(F)c1 [Example 126, 1-((1-(3-chlorophenyl)-3-(trifluoromethyl)-1H-pyrazol-5-yl)methyl)-3-(4-cyclopropyl-3-fluorophenyl)urea] |
| 112 | Cc1c(C(F)(F)F)nn(-c2cccc(Cl)c2)c1CNC(=O)Cc1cccc(F)c1 [Example 130, N-((1-(3-chlorophenyl)-4-methyl-3-(trifluoromethyl)-1H-pyrazol-5-yl)methyl)-2-(3-fluorophenyl)acetamide] |

| Compound | Ki [nM] |
| --- | --- |
| CC(C(=O)NCc1cc(C(C)(C)C)nn1-c1ccccn1)c1ccc(CNS(C)(=O)=O)c(F)c1 (stereo not drawn) [Example 127, N-((3-tert-butyl-1-(pyridin-2-yl)-1H-pyrazol-5-yl)methyl)-2-(3-fluoro-4-(methylsulfonamidmethyl)phenyl)propanamide] | 58.1 |
| CC(C(=O)NCc1cc(C(F)(F)F)nn1NCc1ccccn1)c1ccc(CNS(C)(=O)=O)c(F)c1 (stereo not drawn) [Example 129, 2-(3-fluoro-4-(methylsulfonamidmethyl)phenyl)-N-((1-(pyridin-2-ylmethylamino)-3-(trifluoromethyl)-1H-pyrazol-5-yl)methyl)propanamide] | 63.6 |
| Cc1c(C(F)(F)F)nn(-c2cccc(Cl)c2)c1CNC(=O)C(C)c1ccc(CNS(C)(=O)=O)c(F)c1 (stereo not drawn) [Example 134, N-((1-(3-chlorophenyl)-4-methyl-3-(trifluoromethyl)-1H-pyrazol-5-yl)methyl)-2-(3-fluoro-4-(methylsulfonamidmethyl)phenyl)propanamide] | 2.5 |
| CC(C(=O)NCc1cc(C(F)(F)F)nn1C1CCCCC1)c1ccc(CNS(C)(=O)=O)c(F)c1 (stereo not drawn) [Example 137, N-((1-cyclohexyl-3-(trifluoromethyl)-1H-pyrazol-5-yl)methyl)-2-(3-fluoro-4-(methylsulfonamidmethyl)phenyl)propanamide] | 65.1 |
